Experimental data reported in EP0073100B1, “Beta-lactam compounds, their preparation and their use” (BEECHAM GROUP PLC, priority 1981, dated 1983).
≈ marks a conversion by molar mass, not a printed value.

What was measured:
Assay in all cases: MIC, growth inhibition in nutrient broth
Format in all cases: cell-based
E. coli = details: Escherichia coli
Klebsiella aerogenes = tested on: Klebsiella aerogenes
Proteus mirabilis = tested on: Proteus mirabilis
S. typhimurium = details: Salmonella enterica
B. subtilis = details: Bacillus subtilis
Staph. aureus Oxford = details: Staphylococcus aureus
Staph. aureus Russell = details: Staphylococcus aureus, Staph. aureus Russell (β-lactamase-producing benylpenicillin-resistant strain)
Strep. faecalis = details: Enterococcus faecalis
Strep. pyogenes = details: Streptococcus pyogenes

Compound: COC(=O)C1C[C@@H]2[C@H](NC(=O)COc3ccccc3)C(=O)N2[C@H]1C(=O)O (mixture of isomers) [compound 17, (2RS, 5RS, 6SR) 1-Aza-3-methoxycarbonyl-6-phenoxyacetamidobicyclo [3.2.0] -heptan-7-one-2-carboxylic acid]
- MIC (E. coli): 250 µg/mL (≈ 690 µM)
- MIC (Klebsiella aerogenes): 250 µg/mL (≈ 690 µM)
- MIC (Proteus mirabilis): 62 µg/mL (≈ 171 µM)
- MIC (S. typhimurium): 250 µg/mL (≈ 690 µM)
- MIC (B. subtilis): 2 µg/mL (≈ 5.52 µM)
- MIC (Staph. aureus Oxford): < 0.5 µg/mL
- MIC (Staph. aureus Russell): 62 µg/mL (≈ 171 µM)
- MIC (Strep. faecalis): 8 µg/mL (≈ 22.1 µM)
- MIC (Strep. pyogenes): < 10.5 µg/mL
